Patent US5004758A, “Water soluble camptothecin analogs useful for inhibiting the growth of animal tumor cells” (priority 1988, dated 1991)
Where “and” joins values, the source holds several entries; their conditions need not be identical. Equal values may be shown once. Where a name gives a salt, the structure may show the parent alone. Read-outs that look alike come from different tables or passages of the source.

Legend:
sc M5076 sarcoma = experiment: sc-implanted M5076 sarcoma in mice; assay type: in vivo, mouse; settings: for Mice without Palpable Tumors: B/ip
Description: The inoculum varies with the tumor.

Aqueous solubility = assay type: physicochemical
ip B16 melanoma = settings: mouse, in vivo
Description: (§1) Tumors used in these studies--P388 leukemia and its doxorbicin--and mitoxanrone-resistant sublines, L1210 leukemia, B16 melanoma, B16 melanoma/F10 subline, M5076 sarcoma and colon carcinoma 26--are maintained by serial transplantation in syngeneic strains of mice. For the leukemias, these tumors are maintained in DBA/2 mice. The M5076 sarcoma, the B16 melanoma and its F10 subline are maintained in C57B1/6 mice and the colon sarcinoma 26 is maintained in BALB/c mice. The leukemias and the M5076 sarcoma are serially transplanted i.p. as ascites cell suspensions while the B16 melanoma lines and the colon carcinoma 26 are serially transplanted as s.c. solid tumors.
(§2) For therapeutic trials, tumors are aseptically removed from donor mice and prepared as suspensions for implantation ip into test animals. The test animals for the colon carcinoma 26 are female BALB/c mice (20-25 gm). The test animals for the other tumor models are syngeneic female F1 hybrid B6D2F1 mice (C57B1/6 x DBA/2). The inoculum level varies with the type of tumor: P388 leukemia is inoculated at 10^6 cells per mouse, L1210 leukemia at 10^5 or 10^6 cells per mouse, M5076 sarcoma at 5×10^6 cells per mouse. For implantation of the B16 melanoma lines and the colon carcinoma 26, s.c. tumors from donor mice are minced and homogenized in loose fitting teflon glass homogenizer to give a tumor brei. The inoculum levels are 0.5 ml of a 10 percent (w:v) brei of the B16 melanoma lines and 0.5 ml of a 5 percent (w:v) brei of colon carcinoma 26. After tumor inoculation, mice randomized to treatment groups comprised of 6-8 mice each. In each experiment, there are three groups of untreated control mice. Drugs are dissolved or suspended in appropriate aqueous vehicles and given by a variety of routes and schedules of administration over a range of dose levels. Animals are housed in shoebox cages and are monitored daily for mortality for 30 (L1210), 45 (P388) or 60 (B16, M5076, colon 26) days.

sc B16 melanoma = settings: for ILS: mouse, in vivo; for Tumor growth inhibition (TGI) / Mice without Palpable Tumors: sc B16
Description: Inhibition of tumor growth (TGI) is based on mean tumor volume of groups of 7 or 8 mice relative to untreated controls.
Tumors used in these studies are maintained by serial transplantation in syngeneic strains of mice C57BL/6 for Lewis lung carcinoma, B16 melanoma and its F10 subline, M5076 sarcoma and colon adenocarcinoma 38; BALB/c for colon carcinoma 26, ADJ-PC6 plasmacytoma Madison lung carcinoma and colon adenocarcinoma 51, C3H for mammary adenocarcinoma 16/c. With the exception of the M5076 sarcoma, which is maintained as a i.p ascites cell suspension, all of the tumors were serially transplanted as s.c. solid tumors.
For therapeutic trials, tumors were aseptically removed from donor mice and prepared for implantation s.c. into test animals. The test animals for Lewis lung carcinoma, B16 melanoma and its F10 subline, M5076 sarcoma and colon adenocarcinoma 38 are syngeneic female F1 hybrid B6D2F mice (C57B1/6×DBA/2). ADJ-PC6 plasmacytoma and colon carcinoma 26 are evaluated in female BALB/c mice. Madison lung carcinoma and colon adenocarcinoma 51 are evaluated in syngeneic female F1 hybrid CD2F1 mice (BALB/c×DBA/2). Mammary adenocarcinoma 16/c is evaluated in female C3H mice. The inoculum varies with the tumor. Colon adenocarcinomas 38 is implanted as 2 mm fragments by trochar. M5076 sarcoma and ADJ-PC6 plasmacytoma are implanted as cell suspensions at 5×10^6 and 2×10^6 cells per mouse, respectively. Colon carcinoma 26, colon adenocarcinoma 51, Lewis lung carcinoma, Madison lung carcinoma and B16 melanoma and its F10 subline are implanted as tumor breis prepared as described above in a volume of 0.5 ml. The brei concentration was 10 percent (w:v) except for colon carcinoma 26 for which the brei concentration was 5 percent (w:v). After tumor inoculation, mice are randomized to treatment groups of 7 or 8 mice. In each experiment, there are three groups of untreated control mice.
Drugs are dissolved or suspended in appropriate aqueous vehicles and given by a variety of routes of administration and treatment schedules over a range of dosage levels. Animals are housed in shoebox cages and are monitored daily for mortality. […] Time for tumor measurement is dependent on the different rates of tumor growth of the different tumors: the most rapidly growing tumors such as the Lewis and Madison lung tumors, B16 melanoma and its F10 subline were measured between Days 12 and 16. The slower growing tumors were measured at later time points--17 days for M5076 sarcoma, 16 or 19 days for mammary adenocarcinoma 16/c, 19 days for ADJ-PC6 plasmacytoma and colon carcinoma 26, 24 days for colon adenocarcinoma 51, and 31 days for colon adenocarcinoma 38.
For highly metastatic tumors including: Lewis and Madison lung tumors, colon carcinoma 26 and B16 melanoma and its F10 subline, tumor-bearing mice are monitored for survival time as well. For the less mestastatic tumor models, tumor-bearing mice are killed following tumor measurement. In this setting, an increase in lifespan of ≥30 percent is considered to be evidence of drug activity.

in vivo [1] = settings: mouse, ip
Description: (§3) For in vivo studies L1210 cells were implanted i.p. (10^6 per mouse)
(§4) and drugs were administered i.p. on Days 1 and 5. Increase in lifespan
(§5) (ILS) was based on median survival time of groups of 6 mice treated at th
maximally tolerated dose of the drugs.

in vivo [2] = settings: mouse, ip; remark: listed apart in the source
Description: as §1, §2

in vivo [3] = settings: mouse, ip; remark: listed apart in the source
Description: as §1, §2

in vivo [4] = settings: mouse, ip; remark: listed apart in the source
Description: Tumors used in these studies P388 leukemia, L1210 leukemia and Lewis lung carcinoma--are maintained by serial transplantation in syngeneic strains of mice, DBA/2 for the leukemias and C57B1/6 for Lewis lung carcinoma. The leukemias are serially transplanted i.p. as ascites cell suspensions while the Lewis lung carcinoma is serially transplanted as a s.c. solid tumor.
For therapeutic trials, tumors were aseptically removed from donor mice and prepared as suspensions for implantation into test animals which for each tumor are syngeneic female F1 hybrid B6D2F1 mice (C57B1/6×DBA/2). The inoculum level varies with the type of tumor: P388 leukemia is inoculated at 10^6 cells per mouse, L1210 leukemia at 10^5 or 10^6 cells per mouse, and Lewis lung carcinoma at 0.25 ml of a 10 percent (w:v) brei. […] After tumor inoculation, mice are randomized to treatment groups of 6 to 8 mice each. In each experiment, there are three groups of untreated control mice.
Drugs are dissolved or suspended in appropriate aqueous vehicles and given i.p. or i.v. on various treatment schedules over a range of dosage levels. Animals are housed in shoebox cages and monitored daily for mortality for 30 (L1210), 45 (P388) or 60 (Lewis lung) days.

ip L1210 leukemia = experiment: ip-implanted L1210 leukemia in mice; settings: mouse, in vivo, ip;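 also: each mouse received 10^6 L1210 cells intraperitoneally, with drug treatment also given by the i.p. route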
Description: as §3, §4, §5
maximally tolerated dose of the drugs.

P388/Doxorubicin = experiment: ip P388/Doxorubicin multidrug resistant subline in mice; settings: for ILS / NCK (net tumor cell kill): P388/Doxorubicin, ip, Days 1 and 5
Description: Increase in lifespan (ILS) is based on median survival time of groups of 6 mice. Net tumor cell kill (NCK) is calculated from median survival time by standard methods, since survival time is a linear function of the log tumor cell burden.
For the leukemias, these tumors are maintained in DBA/2 mice. […] The leukemias and the M5076 sarcoma are serially transplanted i.p. as ascites cell suspensions while the B16 melanoma lines and the colon carcinoma 26 are serially transplanted as s.c. solid tumors.
For therapeutic trials, tumors are aseptically removed from donor mice and prepared as suspensions for implantation ip into test animals. […] The test animals for the other tumor models are syngeneic female F1 hybrid B6D2F1 mice (C57B1/6 x DBA/2). The inoculum level varies with the type of tumor: P388 leukemia is inoculated at 10^6 cells per mouse, L1210 leukemia at 10^5 or 10^6 cells per mouse, M5076 sarcoma at 5×10^6 cells per mouse. […] After tumor inoculation, mice randomized to treatment groups comprised of 6-8 mice each. In each experiment, there are three groups of untreated control mice. Drugs are dissolved or suspended in appropriate aqueous vehicles and given by a variety of routes and schedules of administration over a range of dose levels. Animals are housed in shoebox cages and are monitored daily for mortality for 30 (L1210), 45 (P388) or 60 (B16, M5076, colon 26) days.

## CC[C@@]1(O)C(=O)OCc2c1cc1n(c2=O)Cc2cc3c(CN(C)C)c(O)ccc3nc2-1 [Compound No. 1S, (20 S) 9-Dimethylaminomethyl-10-hydroxycamptothecin Acetate Salt]
Sc M5076 sarcoma; mouse, in vivo, 3.2 mg/kg
  Tumor growth inhibition (TGI): 64%
Sc M5076 sarcoma; mouse, in vivo, 5.4 mg/kg
  Tumor growth inhibition (TGI): 92%
Sc M5076 sarcoma; mouse, in vivo, 9 mg/kg
  Tumor growth inhibition (TGI): 98%
Sc M5076 sarcoma; mouse, in vivo, 15 mg/kg
  Tumor growth inhibition (TGI): 100%
Sc M5076 sarcoma; mouse, in vivo, 25 mg/kg
  Tumor growth inhibition (TGI): toxic
Sc M5076 sarcoma; mouse, in vivo, sc
  Increase in Lifespan (ILS) or Inhibition of Tumor Growth (TGI): 100 % TGI
Sc M5076 sarcoma; sc M5076, 3.2 mg/kg/injection
  Mice without Palpable Tumors: 2/8
Sc M5076 sarcoma; sc M5076, 5.4 mg/kg/injection
  Mice without Palpable Tumors: 3/8
Sc M5076 sarcoma; sc M5076, 9 mg/kg/injection
  Mice without Palpable Tumors: 6/8
Sc M5076 sarcoma; sc M5076, 15 mg/kg/injection
  Mice without Palpable Tumors: 8/8
Sc M5076 sarcoma; sc M5076, ip Days 1, 5, 9 and 13
  prolonged lifespan: 31%
Aqueous solubility
  solubility in water / aqueous vehicles: water-soluble
Ip B16 melanoma
  ILS: 130
Ip B16 melanoma; ip
  Increase in Lifespan (ILS) or Inhibition of Tumor Growth (TGI): 152 % ILS
Ip B16 melanoma; ip, 3.2 mg/kg
  Increase in lifespan (ILS): 43%
Ip B16 melanoma; ip, 5.4 mg/kg
  Increase in lifespan (ILS): 52%
Ip B16 melanoma; ip, 25 mg/kg
  Increase in lifespan (ILS): toxic
Sc B16 melanoma
  ILS: 53
Sc B16 melanoma; 24 mg/kg
  ILS: 39
Sc B16 melanoma; sc
  ILS: 52
Sc B16 melanoma; C/ip (every 3 hours x4 on Days 1, 5 and 9), 0.78 mg/kg/injection
  Tumor growth inhibition (TGI): 46%
Sc B16 melanoma; C/ip (every 3 hours x4 on Days 1, 5 and 9), 1.3 mg/kg/injection
  Tumor growth inhibition (TGI): 64%
Sc B16 melanoma; C/ip (every 3 hours x4 on Days 1, 5 and 9), 2.2 mg/kg/injection
  Tumor growth inhibition (TGI): 92%
Sc B16 melanoma; C/ip (every 3 hours x4 on Days 1, 5 and 9), 3.6 mg/kg/injection
  Tumor growth inhibition (TGI): 100%
Sc B16 melanoma; C/ip (every 3 hours x4 on Days 1, 5 and 9), 6 mg/kg/injection
  Tumor growth inhibition (TGI): 100%
Sc B16 melanoma; C/ip, 0.78 mg/kg/injection
  Mice without Palpable Tumors: 1/8
Sc B16 melanoma; C/ip, 1.3 mg/kg/injection
  Mice without Palpable Tumors: 1/8
Sc B16 melanoma; C/ip, 2.2 mg/kg/injection
  Mice without Palpable Tumors: 2/8
Sc B16 melanoma; C/ip, 3.6 mg/kg/injection
  Mice without Palpable Tumors: 7/7
Sc B16 melanoma; C/ip, 6 mg/kg/injection
  Mice without Palpable Tumors: 7/7
Sc B16 melanoma; F/ip (Days 1, 5 and 9), 3.1 mg/kg/injection
  Tumor growth inhibition (TGI): 63%
Sc B16 melanoma; F/ip (Days 1, 5 and 9), 5.2 mg/kg/injection
  Tumor growth inhibition (TGI): 20%
Sc B16 melanoma; F/ip (Days 1, 5 and 9), 8.6 mg/kg/injection
  Tumor growth inhibition (TGI): 63%
Sc B16 melanoma; F/ip (Days 1, 5 and 9), 14 mg/kg/injection
  Tumor growth inhibition (TGI): 57%
Sc B16 melanoma; F/ip (Days 1, 5 and 9), 24 mg/kg/injection
  Tumor growth inhibition (TGI): 99%
Sc B16 melanoma; F/ip, 3.1 mg/kg/injection
  Mice without Palpable Tumors: 2/8
Sc B16 melanoma; F/ip, 5.2 mg/kg/injection
  Mice without Palpable Tumors: 1/8
Sc B16 melanoma; F/ip, 8.6 mg/kg/injection
  Mice without Palpable Tumors: 3/8
Sc B16 melanoma; F/ip, 14 mg/kg/injection
  Mice without Palpable Tumors: 3/8
Sc B16 melanoma; F/ip, 24 mg/kg/injection
  Mice without Palpable Tumors: 7/8
Sc B16 melanoma; F/iv (Days 1, 5 and 9), 3.2 mg/kg/injection
  Tumor growth inhibition (TGI): 54%
Sc B16 melanoma; F/iv (Days 1, 5 and 9), 5.4 mg/kg/injection
  Tumor growth inhibition (TGI): 79%
Sc B16 melanoma; F/iv (Days 1, 5 and 9), 9 mg/kg/injection
  Tumor growth inhibition (TGI): 96%
Sc B16 melanoma; F/iv (Days 1, 5 and 9), 15 mg/kg/injection
  Tumor growth inhibition (TGI): 99%
Sc B16 melanoma; F/iv (Days 1, 5 and 9), 25 mg/kg/injection
  Tumor growth inhibition (TGI): toxic
Sc B16 melanoma; F/iv, 3.2 mg/kg/injection
  Mice without Palpable Tumors: 2/8
Sc B16 melanoma; F/iv, 5.4 mg/kg/injection
  Mice without Palpable Tumors: 3/8
Sc B16 melanoma; F/iv, 9 mg/kg/injection
  Mice without Palpable Tumors: 6/8
Sc B16 melanoma; F/iv, 15 mg/kg/injection
  Mice without Palpable Tumors: 7/8
Sc B16 melanoma; sc B16 Melanoma, optimal doses and optimal schedules
  Increase in Lifespan (ILS) or Inhibition of Tumor Growth (TGI): 100 % TGI
In vivo [1]
  MTD: 15 mg/kg
In vivo [2]
  MTD: 15 mg/kg
In vivo [3]
  MTD: 15 mg/kg
In vivo [4]
  MTD: 15 mg/kg
Ip L1210 leukemia
  Increase in Lifespan (ILS) or Inhibition of Tumor Growth (TGI): Curative
Ip L1210 leukemia; 3.2 mg/kg
  Increase in lifespan (ILS): 31%
Ip L1210 leukemia; 5.4 mg/kg
  Increase in lifespan (ILS): 81%
Ip L1210 leukemia; 9 mg/kg
  Increase in lifespan (ILS): 138%
Ip L1210 leukemia; 15 mg/kg
  Increase in lifespan (ILS): 219%
  Long-Term Survivors: 2/6
Ip L1210 leukemia; 25 mg/kg
  Increase in lifespan (ILS): toxic
Ip L1210 leukemia; Acetate Salt
  long term survivors at the maximally tolerated doses: 1/6 and 0/6 and 2/6 and 5/6
P388/Doxorubicin; 3.2 mg/kg
  ILS: 14%
  NCK (net tumor cell kill): 0 log
P388/Doxorubicin; 5.4 mg/kg
  ILS: 33%
  NCK (net tumor cell kill): 0 log
P388/Doxorubicin; 9 mg/kg
  ILS: 90%
  NCK (net tumor cell kill): 2.2 log
P388/Doxorubicin; 15 mg/kg
  ILS: 176%
  NCK (net tumor cell kill): 6.0 log
P388/Doxorubicin; 25 mg/kg
  ILS: toxic
P388/Doxorubicin; P388/doxorubicin in mice
  sensitivity / resistance of subline: retained sensitivity
